Values of other authors as cited in patent US9145400B2, “Process for the preparation of form III of vilazodone hydrochloride” (Sandoz AG, priority 2013, dated 2015).
Read-outs that look alike come from different tables or passages of the source.

What was measured:
[1] = DVS, humidity of about 90%; takes up water only in minimal amounts; per WO 02/102794
[2] = at room temperature

- hygroscopicity (water uptake) [1]: non-hygroscopic
- thermodynamic stability among polymorphs ([2]; per WO 02/102794 page 20, lines 23-26 and FIG. 27, listed as Vilazodone hydrochloride crystalline form III): thermodynamically most stable form
- thermodynamic stability among polymorphs ([2]; per WO 02/102794 page 20, lines 23-26 and FIG. 27, hydrochloride): most thermodynamically stable polymorph
Compound: Cl.N#Cc1ccc2[nH]cc(CCCCN3CCN(c4ccc5oc(C(N)=O)cc5c4)CC3)c2c1 [form III of Vilazodone hydrochloride, 5-(4-[4-(5-cyano-1H-indol-3-yl)butyl]piperazin-1-yl)benzofuran-2-carboxamide hydrochloride]
